Experimental data from patent publication US9346759B2, “Polymorphic crystal forms of 5-(2-{[6-(2,2-difluoro-2-phenylethoxy)hexyl]amino}-1-(R)-hydroxyethyl)-8-hydroxyquinolin-2(1H)-one, heminapadisytlate as agonist of the β2 adrenergic receptor” (ALMIRALL, S.A., priority 2012, dated 2016).

Assay: Aerodynamic assessment of fine particles of the inhalation powder composition (modified Anderson Cascade Impactor, Genuair inhaler)
Type: physicochemical
Settings: dry powder blend of the polymorph with lactose carrier, no additive material, ACI 60 L/min, fine particles <5 μm, HPLC
Excerpt: The process for manufacturing the pharmaceutical composition comprising a polymorphic salt of compound (I) (Type α, Type β or Hydrate) and a carrier is as follows: • 1. 20% by weight of lactose used as a carrier was blended with one polymorph (Type α, Type β or Hydrate). The resulting mixture was sieved and mixed again. • 2. The remaining 80% by weight of lactose was sieved and added to the mixture of Step 1. The whole mixture was blended, sieved and blended again resulting in the final inhalation powder blend.
The test on the aerodynamic assessment of the fine particles (FPD<5 μm) of the inhalation powder composition is carried out in combination with the Genuair® inhaler. The Fine Particle Fraction of the three formulations was calculated on basis of the principles of the aerodynamic assessment of fine particles according to the Current European pharmacopoeia (Ph. Eur. Chapter 2.9.18) and USP<601> by the aid of aerodynamic impactor analyses using a modified Anderson Cascade Impactor (ACI), 60 L/min-configuration including pre-separator, stage-1, -0, and stage 1-7 (filter stage). The content of the active ingredient on each stage of the impactor is determined my means of HPLC.
The fine particle dose (FPD<5 μm) is calculated based on Ph. Eur. Chapter 2.9.18 and USP<601> by point to point interpolation per dosage. […]
To obtain the Fine Particle Dose, the cumulative percent value (y-value) at which the line of data plot crosses 5 μm mark is determined. […] FPD [μg]=yFPD·F/100% • FPD=Fine particle dose<5 μm of the active ingredient per dosage [μg]. • yFPD=y-value of cumulative percentage of mass at a particle size of 5 μm evaluated by linear point to point interpolation [%]. • F=sum of mass on stage-1-stage 7 (filter) per dosage [μg].
The Fine Particle Fraction (FPF) is the percentage of the emitted dose that the Fine Particel Dose represents and is calculated as follows: FPF [%]=(FPD [μg]/Total sum [μg])*100 • Total sum=the amount of drug substance in the respective impactor (Adapter-Filter).

| FPF (%) | FPF (%) (hemihydrate) | Structure (SMILES) |
| --- | --- | --- |
| 42.2 |  | O=c1ccc2c([C@@H](O)CNCCCCCCOCC(F)(F)c3ccccc3)ccc(O)c2[nH]1 [Comparative Example, 5-(2-{[6-(2,2-difluoro-2-phenylethoxy)hexyl]amino}-1(R)-hydroxyethyl)-8-hydroxyquinolin-2(1H)-one, heminapadisylate, reference compound] |
|  | 49.8 | O=c1ccc2c([C@@H](O)CNCCCCCCOCC(F)(F)c3ccccc3)ccc(O)c2[nH]1 [Polymorph Hydrate, 5-(2-{[6-(2,2-difluoro-2-phenylethoxy)hexyl]amino}-1(R)-hydroxyethyl)-8-hydroxyquinolin-2(1H)-one, heminapadisylate, hemihydrate] |
| 49.3 |  | O=c1ccc2c([C@@H](O)CNCCCCCCOCC(F)(F)c3ccccc3)ccc(O)c2[nH]1 [Polymorph Type β, 5-(2-{[6-(2,2-difluoro-2-phenylethoxy)hexyl]amino}-1(R)-hydroxyethyl)-8-hydroxyquinolin-2(1H)-one, heminapadisylate] |
